Measurements: patent US20250051347A1, “BIFUNCTIONAL CHIMERIC HETEROCYCLIC COMPOUND AND USE THEREOF AS ANDROGEN RECEPTOR DEGRADER” (Hinova Pharmaceuticals, Inc., priority 2021, published 2025)

Molecular target: T1, androgen receptor (AR) splicing variant AR-v7 (Homo sapiens, UniProt P10275)
T1 construct: The degradation activity of compounds on AR-v7 in 22RV1 cells; host or cells: 22RV1 cells
T1 sequence (P10275 1-644 isoform P10275-3): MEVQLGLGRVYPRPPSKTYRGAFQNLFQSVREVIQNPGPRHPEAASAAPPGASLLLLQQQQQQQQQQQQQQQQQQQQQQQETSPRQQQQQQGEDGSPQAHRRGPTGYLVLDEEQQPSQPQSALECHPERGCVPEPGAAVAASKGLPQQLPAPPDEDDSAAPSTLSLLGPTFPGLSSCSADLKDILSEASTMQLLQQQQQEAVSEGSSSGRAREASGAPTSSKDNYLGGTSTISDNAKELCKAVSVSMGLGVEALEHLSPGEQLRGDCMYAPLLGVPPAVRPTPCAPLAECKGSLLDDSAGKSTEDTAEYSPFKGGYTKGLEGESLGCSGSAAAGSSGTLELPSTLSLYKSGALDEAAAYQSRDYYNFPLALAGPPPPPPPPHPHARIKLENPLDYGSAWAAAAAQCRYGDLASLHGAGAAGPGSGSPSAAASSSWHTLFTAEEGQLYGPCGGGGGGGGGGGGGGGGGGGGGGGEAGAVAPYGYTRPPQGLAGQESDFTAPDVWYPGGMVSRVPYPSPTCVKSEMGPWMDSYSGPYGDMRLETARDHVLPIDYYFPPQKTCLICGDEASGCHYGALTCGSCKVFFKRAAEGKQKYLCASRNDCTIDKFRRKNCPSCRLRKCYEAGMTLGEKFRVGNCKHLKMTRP
Assay: Degradation activity on androgen receptor splicing variant AR-v7 in 22RV1 cells (ELISA)
Type: cell-based
Details: AR-v7 degradation in 22RV1 cells, 48 h, class symbols
Method: The degradation activity of the compound of the present invention on the androgen receptor splicing variant AR-V7 was analyzed using enzyme-linked immunosorbent assay (ELISA).
The plate was cultured in a 5% CO2 cell incubator at 37° C. for 2 days until the cells adhered to the wall. • 2) The drug was prepared into 10 mM stock solution with dimethylsulfoxide (DMSO). […] The plate was gently shaken and mixed. In addition, negative control wells (only containing culture medium) and positive control wells (only containing cells and DMSO) were set. • 3) After the cells were cultured in an incubator for 48 h, the medium was removed and the cells were rinsed once with ice cold PBS. Then, ice-cold 1× cell lysis buffer was added to each well of the cell culture plate. After the plate was incubated on ice for 15 min, the plate was tapped to mix. • 4) The supernatant of the cell lysate was transferred from the cell culture plate to a […] plate for ELISA. • 5) The newly prepared Capture antibody (green) was mixed with the newly prepared HRP-labeled antibody (red), and then the antibody mixture was added to the above 96-well ELISA plate. • 6) The ELISA plate was sealed with plastic film, and then incubated in a 25° C. incubator for 1 h. • 7) The washing buffer was added to each well, and then TMB substrate was added to each well of the ELISA plate. Subsequently, the plate was cultured in an incubator at 37° C. for 5 min. • 8) 100 μl of stop solution was added to each well of the ELISA plate, and the plate was gently tapped for several seconds. The absorbance was read at 450 nm within 30 min. The data were analyzed by the Dose-response equation in the software GraphPad Prism8, to obtain DC50 and Dmax values.

Compound | DC50 [µM]
CC(C)(c1ccc(OCCCCCCCCOCCN2CCN(c3ccc4c(c3)C(=O)N(C3CCC(=O)NC3=O)C4=O)CC2)cc1)c1ccc(OCc2ccnc(NS(C)(=O)=O)n2)cc1 (stereo not shown) [Example 1, N-(4-((4-(2-(4-((8-(2-(4-(2-(2,6-dioxopiperidin-3-yl)-1,3-dioxoisoindolin-5-yl)piperazin-1-yl)ethoxy)octyl)oxy)phenyl)propan-2-yl)phenoxy)methyl)pyrimidin-2-yl)methanesulfonamide] | 0.101 to 1
CC(C)(c1ccc(OCCCCCCCOCCN2CCN(c3ccc4c(c3)C(=O)N(C3CCC(=O)NC3=O)C4=O)CC2)cc1)c1ccc(OCc2ccnc(NS(C)(=O)=O)n2)cc1 (stereo not shown) [Example 2, N-(4-((4-(2-(4-((7-(2-(4-(2-(2,6-dioxopiperidin-3-yl)-1,3-dioxoisoindolin-5-yl)piperazin-1-yl)ethoxy)heptyl)oxy)phenyl)propan-2-yl)phenoxy)methyl)pyrimidin-2-yl)methanesulfonamide] | 0.101 to 1
CC(C)(c1ccc(OCCCCNc2cccc3c2C(=O)N(C2CCC(=O)NC2=O)C3=O)cc1)c1ccc(OCc2ccnc(NS(C)(=O)=O)n2)cc1 (stereo not shown) [Example 10, N-(4-((4-(2-(4-(4-((2-(2,6-dioxopiperidin-3-yl)-1,3-dioxoisoindolin-yl)amino)butoxy)phenyl)propan-2-yl)phenoxy)methyl)pyrimidin-2-yl)methanesulfonamide] | 1 to 5

Other lines, results leading:

DC50 [µM] | Compound
0.011 to 0.1 | 5-(((1s,3s)-3-(4-(2-(4-((2-(2H-1,2,3-triazol-2-yl)pyrimidin-5-yl)oxy)phenyl)propan-2-yl)phenoxy)cyclobutyl)amino)-2-(2,6-dioxopiperidin-3-yl)isoindolin-1,3-dione [Example 482]
0.101 to 1 | CC(C)(c1ccc(OCc2ccnc(N3CC4(COC4)C3)n2)cc1)c1ccc(OC2CCC[C@@H](Nc3ccc4c(c3)C(=O)N(C3CCC(=O)NC3=O)C4=O)C2)cc1 (stereo in doubt) [Example 493, 5-((3-(4-(2-(4-((2-(2-oxa-6-azaspiro[3.3]heptan-6-yl)pyrimidin-4-yl)methoxy)phenyl)propan-2-yl)phenoxy)cyclohexyl)amino)-2-(2,6-dioxopiperidin-3-yl)isoindolin-1,3-dione]
1 to 5 | CC(C)(c1ccc(OCCCCCOc2ccc3c(c2)C(=O)N(C2CCC(=O)NC2=O)C3=O)cc1)c1ccc(OCc2ccnc(NS(C)(=O)=O)n2)cc1 (stereo not shown) [Example 9, N-(4-((4-(2-(4-((5-((2-(2,6-dioxopiperidin-3-yl)-1,3-dioxoisoindolin-5-yl)oxy)pentyl)oxy)phenyl)propan-2-yl)phenoxy)methyl)pyrimidin-2-yl)methanesulfonamide]
1 to 5 | CC(C)(c1ccc(OCCCN2CCN(CC3CCN(CC4CN(c5ccc6c(c5)C(=O)N(C5CCC(=O)NC5=O)C6=O)C4)CC3)CC2)cc1)c1ccc(OCc2ccnc(NS(C)(=O)=O)n2)cc1 (stereo not shown) [Example 11, N-(4-((4-(2-(4-(3-(4-((1-((1-(2-(2,6-dioxopiperidin-3-yl)-1,3-dioxoisoindolin-5-yl)azetidin-3-yl)methyl)piperidin-4-yl)methyl)piperazin-1-yl)propoxy)phenyl)propan-2-yl)phenoxy)methyl)pyrimidin-2-yl)methanesulfonamide]
1 to 5 | CC(C)(c1ccc(OCc2ccnc(NS(C)(=O)=O)n2)cc1)c1ccc(OC2CCN(CC3CCN(CC4CCN(CC5CN(c6ccc7c(c6)C(=O)N(C6CCC(=O)NC6=O)C7=O)C5)CC4)CC3)CC2)cc1 (stereo not shown) [Example 12]
1 to 5 | CC(C)(c1ccc(OCCCOCCCNc2cccc3c2C(=O)N(C2CCC(=O)NC2=O)C3=O)cc1)c1ccc(OCc2ccnc(NS(C)(=O)=O)n2)cc1 (stereo not shown) [Example 17]
1 to 5 | CC(C)(c1ccc(OCCCOCCCOCCCNc2ccc3c(c2)C(=O)N(C2CCC(=O)NC2=O)C3=O)cc1)c1ccc(OCc2ccnc(NS(C)(=O)=O)n2)cc1 (stereo not shown) [Example 20, N-(4-((4-(2-(4-(3-(3-(3-((2-(2,6-dioxopiperidin-3-yl)-1,3-dioxoisoindolin-5-yl)amino)propoxy)propoxy)propoxy)phenyl)propan-2-yl)phenoxy)methyl)pyrimidin-2-yl)methanesulfonamide]

Same assay, conditions: AR-v7 degradation in 22RV1 cells, 48 h, numeric values

Compound | DC50 [µM]
CC(C)(c1ccc(OCCCCOCCCCN2CCC3(CC2)CN(c2ccc4c(c2)C(=O)N(C2CCC(=O)NC2=O)C4=O)C3)cc1)c1ccc(OCc2ccnc(NS(C)(=O)=O)n2)cc1 (stereo not shown) [Example 3] | > 10
CC(C)(c1ccc(OCCCOCCCN2CCC3(CC2)CN(c2ccc4c(c2)C(=O)N(C2CCC(=O)NC2=O)C4=O)C3)cc1)c1ccc(OCc2ccnc(NS(C)(=O)=O)n2)cc1 (stereo not shown) [Example 4] | > 10
CC(C)(c1ccc(OCCCCCCCCCN2CCN(C3CN(c4ccc5c(c4)C(=O)N(C4CCC(=O)NC4=O)C5=O)C3)CC2)cc1)c1ccc(OCc2ccnc(NS(C)(=O)=O)n2)cc1 (stereo not shown) [Example 5, N-(4-((4-(2-(4-((9-(4-(1-(2-(2,6-dioxopiperidin-3-yl)-1,3-dioxoisoindolin-5-yl)azetidin-3-yl)piperazin-1-yl)nonyl)oxy)phenyl)propan-2-yl)phenoxy)methyl)pyrimidin-2-yl)methanesulfonamide] | > 10
CC(C)(c1ccc(OCCCCCCN2CCC(CN3CCN(c4ccc5c(c4)C(=O)N(C4CCC(=O)NC4=O)C5=O)CC3)CC2)cc1)c1ccc(OCc2ccnc(NS(C)(=O)=O)n2)cc1 (stereo not shown) [Example 6] | 6.33
CC(C)(c1ccc(OCCCCCCCOCCCN2CCN(c3ccc4c(c3)C(=O)N(C3CCC(=O)NC3=O)C4=O)CC2)cc1)c1ccc(OCc2ccnc(NS(C)(=O)=O)n2)cc1 (stereo not shown) [Example 7, N-(4-((4-(2-(4-((7-(3-(4-(2-(2,6-dioxopiperidin-3-yl)-1,3-dioxoisoindolin-5-yl)piperazin-1-yl)propoxy)heptyl)oxy)phenyl)propan-2-yl)phenoxy)methyl)pyrimidin-2-yl)methanesulfonamide] | > 10
CC(C)(c1ccc(OCCCCCCOCCCCN2CCN(c3ccc4c(c3)C(=O)N(C3CCC(=O)NC3=O)C4=O)CC2)cc1)c1ccc(OCc2ccnc(NS(C)(=O)=O)n2)cc1 (stereo not shown) [Example 8, N-(4-((4-(2-(4-((6-(4-(4-(2-(2,6-dioxopiperidin-3-yl)-1,3-dioxoisoindolin-5-yl)piperazin-1-yl)butoxy)hexyl)oxy)phenyl)propan-2-yl)phenoxy)methyl)pyrimidin-2-yl)methanesulfonamide] | 5.27
CC(C)(c1ccc(OCc2ccnc(NS(C)(=O)=O)n2)cc1)c1ccc(OCC2CCN(CCCCOCCCCNc3ccc4c(c3)C(=O)N(C3CCC(=O)NC3=O)C4=O)C2)cc1 (stereo not shown) [Example 13, N-(4-((4-(2-(4-((1-(4-(4-(4-)((2-(2,6-dioxopiperidin-3-yl)-1,3-dioxoisoindolin-5-yl)amino)butoxy)butyl)pyrrolidin-3-yl)methoxy)phenyl)propan-2-yl)phenoxy)methyl)pyrimidin-2-yl)methanesulfonamide] | 6.97

Results, then the compound that gave them:

DC50 [µM] | Compound
> 10 | CC(C)(c1ccc(OCc2ccnc(NS(C)(=O)=O)n2)cc1)c1ccc(OC2CN(CCCCCOCCCCNc3ccc4c(c3)C(=O)N(C3CCC(=O)NC3=O)C4=O)C2)cc1 (stereo not shown) [Example 14]
> 10 | CC(C)(c1ccc(OCc2ccnc(NS(C)(=O)=O)n2)cc1)c1ccc(OC2CCN(CCCCCOCCCCNc3ccc4c(c3)C(=O)N(C3CCC(=O)NC3=O)C4=O)CC2)cc1 (stereo not shown) [Example 15]
> 10 | CC(C)(c1ccc(OCc2ccnc(NS(C)(=O)=O)n2)cc1)c1ccc(OCC2CCN(CCCOCCCCNc3ccc4c(c3)C(=O)N(C3CCC(=O)NC3=O)C4=O)CC2)cc1 (stereo not shown) [Example 16]
> 10 | CC(C)(c1ccc(OCCCOCCCNc2ccc3c(c2)C(=O)N(C2CCC(=O)NC2=O)C3=O)cc1)c1ccc(OCc2ccnc(NS(C)(=O)=O)n2)cc1 (stereo not shown) [Example 18]
6.86 | CC(C)(c1ccc(OCCCOCCCOCCCNc2cccc3c2C(=O)N(C2CCC(=O)NC2=O)C3=O)cc1)c1ccc(OCc2ccnc(NS(C)(=O)=O)n2)cc1 (stereo not shown) [Example 19, N-(4-((4-(2-(4-(3-(3-(3-((2-(2,6-dioxopiperidin-3-yl)-1,3-dioxoisoindolin-4-yl)amino)propoxy)propoxy)propoxy)phenyl)propan-2-yl)phenoxy)methyl)pyrimidin-2-yl)methanesulfonamide]
